Test results from patent US10022342B2, “Methods and compositions for treating multiple myeloma” (Ohio State Innovation Foundation, priority 2015, dated 2018).

Legend:
CD44 [1] = assay: CD44 levels in MM.1S subcutaneous xenograft mice (IHC, serum ELISA); format: in vivo; settings: 25 mg/kg, 2 injections
Experimental: To investigate if AR-42 treatment could affect CD44 expression in vivo, a xenograft MM mouse model was created by injecting 1×10^7 viable cells of MM.1S cell line subcutaneously into the right flank of 12 NOD-SCID mice. […] One group of mice (n=4) received intra-peritoneal injections of 25 mg/kg AR-42, while the second group (n=4) was injected with vehicle control (8% DMSO in PBS; Ctrl). Injections were administered once a day (on Monday and Wednesday). Because the anti-tumor activity of AR-42 has been previously reported in preclinical mouse studies, mice were sacrificed 2 days after the second injection in order to avoid tumor size reduction. […] Tumors were excised and used for CD44 immunohistochemical (IHC) studies, while the serum was collected for ELISA assays. […] Thus, AR-42 down-regulates CD44 directly in vivo.
Blood from xenografted mice (0.6 ml/kg) was collected by retro-orbital bleeding and serum was obtained by centrifuging it at 1500×g for 10 min. […] Finally, 100 […] of Stop Reagent was added and absorbance was read on a spectrophotometer at 450 nm. Soluble CD44 (sCD44) content was calculated based on the readings from the standard and sample dilution factor.
Animal experiments were performed according to OSU institutional guidelines. […] The tumor size was measured once a week using a caliper, and the volume was calculated in cubed millimeters (mm3), using the formula L×W2/2. […]

[2] = system: pri-miR-9-1, pri-miR-9-2, pri-miR-9-3; assay: pri-miR-9 primary transcripts by qRT-PCR in MM.1S cells; format: cell-based, human; settings: vs controls
Experimental: Because human miR-9-5p is encoded by three distinct genomic loci (i.e., primary (pri)-miR-9-1 on chromosome 1 (q22), pri-miR-9-2 on chromosome 5 (q14.3), and pri-miR-9-3 on chromosome 15 (q26.1)), the identity of the locus responsible for miR-9up-regulation in response to AR-42 was investigated.
Quantitative real time-PCR (qRT-PCR) was performed with the TaqMan method (Applied Biosystems), according to the manufacturer's instructions, and analyzed with the 7900HT Sequence Detection System (Applied Biosystems). The appropriate TaqMan probes for mRNA, miRNA, and pri-miRNA quantification were purchased from Applied Biosystems, and all reactions were performed in triplicate. The following probes were used: hsa-miR-9-5p (000583), hsa-mir-9-1 (Hs03303201_pri), hsa-miR-9-2 (Hs03303202_pri), hsa-mir-9-3 (Hs03293595_pri), CD44 (Hs01075861_ml), IGF2BP3 (Hs00559907_g1). Simultaneous quantification of ornithine decarboxylase antizyme 1 (OAZ1), or GAPDH mRNAs were used as a reference for mRNA data normalization, while small endogenous nucleolar RNA U44/U48, or U6 were used for miRNA normalization. The relative expression levels were calculated by the comparative cycle threshold (Ct) method (User Bulletin #2; Applied Biosystems). Expression analyses of pre-miRNA was performed with SYBR green PCR master mix (Applied Biosystems) and normalized for U6 RNA. […]

CD44 [3] = assay: CD44 expression in whole bone marrow of MM patients by flow cytometry; format: cell-based, human; settings: 24 hrs; all 5 Len-refractory and 2 of the 3 newly diagnosed MM patients
Experimental: Since MM cell survival is strongly dependent on microenvironment, the effects of AR-42 in combination with Len on MM cell killing in the context of the bone marrow (BM) milieu was examined. Total BM samples obtained from 5 Len-refractory MM (patients 1, 2, 3, 4, and 7) and 3 newly diagnosed MM patients (patients 5, 6, and 8) were treated with AR-42 (0.2 μM) and Len (5 μM) as single agents, and in combination. […] The BM cells from the same patients were used to assess CD44 expression at 24 hrs after AR-42 treatment.
CD44 surface expression was analyzed by staining cells with CD44-FITC antibody (BD Biosciences) for 30 min. in the dark, at room temperature. Apoptosis was measured by Annexin V-FITC and Propidium Iodide (PI) (Clontech) staining for 15 min. in the dark, at room temperature and data immediately acquired on a Beckman Coulter FC500 (Beckman Coulter) machine. Analysis was conducted using the FlowJo Software vX.0.7 (Tree Star Inc.). For the multiparametric analysis, the bone marrow samples were stained with CD38-PE (347687; BD Bioscience), CD138-APC (347193; BD Bioscience), CD45-ECD (A07784; Beckman Coulter), CD44-FITC (BD Bioscience) and AnnexinV-FITC (Clontech) for 30 minutes, washed with PBS and immediately analyzed with Gallios cytometer (Beckman Coulter).
Mouse data were evaluated by ANOVA, and synergy between AR-42 and Len was tested by interaction contrast. […]

For `CC(C)[C@H](C(=O)Nc1ccc(C(=O)NO)cc1)c1ccccc1` [AR-42, (S)-N-hydroxy-4-(3-methyl-2-phenylbutanamido)benzamide], the “soluble CD44 in serum (ELISA)” value (CD44 [1]) was “decreased levels”, the “CD44 staining of tumor sections (IHC)” value (CD44 [1]; vs control group) was “significant lower CD44 staining” and the “primary transcripts of miR-9-5p” value [2] was “dose dependent changes”. The “CD44 expression in whole BM” value (CD44 [3]) was “Downregulation”.
